Reference: patent US20230002774A1, “METHODS AND COMPOSTIONS FOR INHIBITING CORONAVIRAL REPLICATION” (California Institute of Technology, priority 2021, published 2023)
Where two headings read alike, the source gives them in different places.

Columns and labels:
HCoV-229E [1] = type: cell-based
HCoV-OC43 [2] = type: cell-based; set-up: HCoV-OC43 viral RNA level reduced: dose or concentration left out as unconfirmed; details: CB-5083 until 8 hpi, harvested 24 hpi
HCoV-229E [3] = assay: Titer of secreted virus in culture media by TCID50 in H1299 cells, HCoV-229E; type: cell-based
HCoV-OC43 [4] = assay: Titer of secreted virus in culture media by TCID50 in H1299 cells, HCoV-OC43; type: cell-based
HCoV-229E [5] = assay: Stage-limited inhibition assay, viral RNA at 8 hpi, HCoV-229E in H1299 cells; type: cell-based; set-up: dose or concentration left out as unconfirmed
Protocol: (§1) Total cell RNA was extracted using the MagMAX mirVana Total RNA Isolation Kit (Thermo Fisher Scientific) with KingFisher systems (Thermo Fisher Scientific). RNA was quantified using NanoDrop Lite Spectrophotometer (Thermo Fisher Scientific). Total RNA ([…]) was reverse transcribed using the High-Capacity cDNA Reverse Transcription Kit (Thermo Fisher Scientific). cDNA samples were used for quantitative TagMan PCR using TaqMan™ Universal Master Mix II, no UNG (Thermo Fisher Scientific), in an QuantStudio™ 5 System (Thermo Fisher Scientific). FAM-MGB-labeled TaqMan probes for the indicated genes were purchased from Thermo Fisher Scientific. The resulting data were analyzed using Excel and GraphPad Prism 8.
(§2) H1299 cells were treated with 0.1% DMSO, […] CB-5083, or […] of NMS-873 from 30 min prior to virus infection until 8 h post-infection. […] Cells were collected at 8 hpi for viral RNA determination.

HCoV-OC43 [6] = assay: Stage-limited inhibition assay, viral RNA at 8 hpi, HCoV-OC43 in H1299 cells; type: cell-based; details: for viral RNA levels vs vehicle control, inhibitors throughout the experiment (group 2): 1 mM CB-5083 or 2 mM NMS-873, 30 min before infection to 8 hpi, harvested 8 hpi; for viral RNA levels, early treatment (group 3: pretreatment to 0 hpi): 1 mM CB-5083 or 2 mM NMS-873, harvested 8 hpi
Protocol: as §1, §2

HCoV-229E [7] = system: HCoV-229E
HCoV-OC43 [8] = details: HCoV-OC43, CB-5083 0.5 mM, 8 hpi
Protocol: Cells were fixed with cold 4% paraformaldehyde for 15 min followed by permeabilization/blocking with 10% FBS and 0.2% Triton X-100 for another 1 h. Cells were stained with mouse anti-dsRNA antibody clone rJ2 (1:50) (Sigma-Aldrich, MABE1134) followed by labeling with anti-mouse mouse secondary antibody conjugated to Alexa-488 (Thermo Fisher Scientific). Nuclei were stained with Hoechst. Fluorescent images were acquired using Thermo Scientific™ Invitrogen™ EVOS™ FL Auto 2 Imaging System.
Cells were treated with the indicated concentration of CB-5083 and infected with virus. After 1 h of infection, cells were washed three times with serum-free media and then returned to media containing 2% FBS and the same concentration of CB-5083.

[9] = system: HCoV-infected H1299 cells; details: CB-5083 0.5 mM until 8 hpi, viability at 72 hpi
Protocol: (§3) Cells were seeded using 2×10^5 cells per well in 96-well plates and incubated overnight at 37° C. Cells were treated with the indicated concentration of CB-5083 and infected with virus or mock infected. After 1 h of infection, cells were washed three times with serum-free media and then cultured with media containing 10% FBS and the same concentration of CB-5083. Cultured media was replaced with fresh media at 8 hpi. At 72 hpi, cell viability was measured by CellTiter-Glo® Luminescent Cell Viability Assay (Promega).

H1299 cells = details: cell viability at 72 hpi, normalized to mock-infected DMSO-treated control
Protocol: as §3

| Structure (SMILES) | HCoV-229E viral RNA level reduced (HCoV-229E [1]) | HCoV-229E viral RNA level, effect of different doses (HCoV-229E [1]) | HCoV-OC43 viral RNA level reduced (HCoV-OC43 [2]) | HCoV-OC43 viral RNA level, effect of different doses (HCoV-OC43 [2]) | viral titer of secreted HCoV-229E decreased (HCoV-229E [3]) | viral titer of secreted HCoV-OC43 decreased (HCoV-OC43 [4]) | viral RNA levels vs vehicle control, inhibitors throughout the experiment (group 2) (HCoV-229E [5]) | viral RNA levels, early treatment (group 3: pretreatment to 0 hpi) (HCoV-229E [5]) | viral RNA levels vs vehicle control, inhibitors throughout the experiment (group 2) (HCoV-OC43 [6]) | viral RNA levels, early treatment (group 3: pretreatment to 0 hpi) (HCoV-OC43 [6]) | dsRNA signals (immunostaining) (HCoV-229E [7]) | dsRNA signals (immunostaining) (HCoV-OC43 [8]) | cell viability increased compared to HCoV-infected and DMSO-treated control [9] | toxicity of the tested concentrations to H1299 cells (H1299 cells) | viral RNA levels vs vehicle control, inhibitors throughout the experiment (group 2) (HCoV-229E [5]; HCoV-229E, 30 min before infection to 8 hpi, harvested 8 hpi) | viral RNA levels, early treatment (group 3: pretreatment to 0 hpi) (HCoV-229E [5]; HCoV-229E, harvested 8 hpi) |
| --- | --- | --- | --- | --- | --- | --- | --- | --- | --- | --- | --- | --- | --- | --- | --- | --- |
| Cc1cc2c(C(N)=O)cccc2n1-c1nc2c(c(NCc3ccccc3)n1)COCC2 [CB-5083] | about 47% | reduced by CB-5083 in a dose-dependent manner | about 40% | reduced by CB-5083 in a dose-dependent manner | ~81% | ~85% | Extensive reduction | only minor or no effects | Extensive reduction | only minor or no effects | lower dsRNA signals | lower dsRNA signals | ~29% | non-toxic | – | – |
| Cc1cc(OCc2nnc(SC3CCCC3)n2-c2cccnc2)ccc1-c1ccc(S(C)(=O)=O)cc1 [NMS-873, 3-[3-cyclopentylsulfanyl-5-[[3-methyl-4-(4-methylsulfonylphenyl)phenoxy]methyl]-1,2,4-triazol-4-yl]pyridine] | – | – | – | – | – | – | – | – | Extensive reduction | only minor or no effects | – | – | – | – | Extensive reduction | only minor or no effects |
